Experimental data taken from paper PMC5220248 (Angewandte Chemie (International ed. in English), 2016).
Residues, ends and D or L forms follow the SMILES beside them.

Tests used:
[1] = target: HIV Rev protein (Human immunodeficiency virus type 1 group M subtype B, UniProt P04618); assay type: binding
[2] = human, serum

**Q.** With C[C@@H]1NC(=O)[C@H](C)NC(=O)[C@@H]2CCCN2C(=O)[C@H](Cc2ccc(O)cc2)NC(=O)[C@H](CCCNC(=N)N)NC(=O)[C@H](Cc2ccc(O)cc2)NC(=O)[C@H](CO)NC1=O [cRBP, cyclo-YPAASYR] (cyclo(AASYRYP)) as the molecule, how does the IC50 [1] read?
**A.** 28 ± 5 nM

**Q.** What about the half-life [2] of the same molecule?
**A.** ~30 h
